This passage reports pIC50 results from the supplement of paper PMC12076712.

Holding throughout (experiment): pIC50, kinobeads binding competition
One test has as its target UniProt Q8NI60. In outline: (§1)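 Jurkat cells were exposed alive to nine compound concentrations (top 30 μM, 1:4 steps) or vehicle for 60 min at 37 °C and then lysed. In a second format, nine concentrations (top 30 μM, 1:5 steps) were incubated for 60 min at 4 °C with Jurkat lysate or with a 1:1:1:1 lysate mix of HEK293, K-562, HepG2 and placenta. Proteins captured on Kinobeads were digested and quantified by TMT10 LC-MS/MS. pIC50 values were derived from logistic dose-response fits (R drc package) of fold changes relative to vehicle, in biological duplicates.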

The target in a further test is ACVR2A (UniProt P27037). Conditions: cell material: Lysate mix. In outline:
as §1

The next test concerns the target T1, ULK1 (UniProt O75385).
T1 sequence (whole entry): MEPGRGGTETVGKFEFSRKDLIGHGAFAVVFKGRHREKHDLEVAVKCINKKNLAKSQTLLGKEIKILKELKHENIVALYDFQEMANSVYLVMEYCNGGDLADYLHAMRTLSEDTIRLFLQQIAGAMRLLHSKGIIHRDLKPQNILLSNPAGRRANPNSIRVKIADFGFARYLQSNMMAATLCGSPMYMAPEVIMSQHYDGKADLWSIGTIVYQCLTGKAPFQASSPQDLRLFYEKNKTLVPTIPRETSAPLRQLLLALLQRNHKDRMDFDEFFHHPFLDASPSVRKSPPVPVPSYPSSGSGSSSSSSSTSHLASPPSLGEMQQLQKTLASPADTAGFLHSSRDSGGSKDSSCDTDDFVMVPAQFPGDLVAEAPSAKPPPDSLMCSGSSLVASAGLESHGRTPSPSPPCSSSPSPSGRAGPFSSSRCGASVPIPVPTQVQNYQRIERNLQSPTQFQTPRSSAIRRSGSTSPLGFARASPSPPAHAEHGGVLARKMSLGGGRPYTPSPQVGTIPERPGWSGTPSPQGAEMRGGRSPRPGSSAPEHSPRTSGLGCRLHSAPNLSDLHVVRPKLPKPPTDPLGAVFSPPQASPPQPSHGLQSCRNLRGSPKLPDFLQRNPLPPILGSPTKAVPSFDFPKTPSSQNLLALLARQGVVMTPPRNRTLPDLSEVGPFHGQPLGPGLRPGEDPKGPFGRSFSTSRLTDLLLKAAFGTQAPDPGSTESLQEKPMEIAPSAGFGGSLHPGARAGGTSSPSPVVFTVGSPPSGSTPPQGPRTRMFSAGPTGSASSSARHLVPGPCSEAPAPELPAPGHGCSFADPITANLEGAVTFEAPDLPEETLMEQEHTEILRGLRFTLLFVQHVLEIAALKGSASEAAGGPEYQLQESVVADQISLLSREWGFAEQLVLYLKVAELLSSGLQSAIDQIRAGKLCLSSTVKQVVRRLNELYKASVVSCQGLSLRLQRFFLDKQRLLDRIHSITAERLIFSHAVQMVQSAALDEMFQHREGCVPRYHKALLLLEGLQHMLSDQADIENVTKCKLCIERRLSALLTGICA
In outline: as §1

For the next test, the target named is T2, NLK (UniProt Q9UBE8).
T2 sequence (whole entry): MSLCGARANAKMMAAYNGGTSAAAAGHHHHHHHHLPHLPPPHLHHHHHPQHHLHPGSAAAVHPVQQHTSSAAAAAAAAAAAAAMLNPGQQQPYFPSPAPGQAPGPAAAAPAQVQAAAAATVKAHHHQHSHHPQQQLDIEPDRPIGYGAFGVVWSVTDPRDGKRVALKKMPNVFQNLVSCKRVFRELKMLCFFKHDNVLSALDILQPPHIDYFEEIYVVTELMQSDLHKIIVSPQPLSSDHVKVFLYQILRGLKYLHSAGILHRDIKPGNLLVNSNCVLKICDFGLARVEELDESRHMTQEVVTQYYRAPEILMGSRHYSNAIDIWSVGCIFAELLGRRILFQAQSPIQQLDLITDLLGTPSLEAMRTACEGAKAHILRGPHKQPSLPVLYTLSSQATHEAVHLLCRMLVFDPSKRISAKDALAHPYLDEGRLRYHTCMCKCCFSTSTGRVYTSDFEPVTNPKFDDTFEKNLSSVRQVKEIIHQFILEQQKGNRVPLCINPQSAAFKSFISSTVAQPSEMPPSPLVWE
A digest of the protocol:
as §1

For the next test, the target named is T3, MAP4K2 (UniProt Q12851).
T3 sequence (whole entry): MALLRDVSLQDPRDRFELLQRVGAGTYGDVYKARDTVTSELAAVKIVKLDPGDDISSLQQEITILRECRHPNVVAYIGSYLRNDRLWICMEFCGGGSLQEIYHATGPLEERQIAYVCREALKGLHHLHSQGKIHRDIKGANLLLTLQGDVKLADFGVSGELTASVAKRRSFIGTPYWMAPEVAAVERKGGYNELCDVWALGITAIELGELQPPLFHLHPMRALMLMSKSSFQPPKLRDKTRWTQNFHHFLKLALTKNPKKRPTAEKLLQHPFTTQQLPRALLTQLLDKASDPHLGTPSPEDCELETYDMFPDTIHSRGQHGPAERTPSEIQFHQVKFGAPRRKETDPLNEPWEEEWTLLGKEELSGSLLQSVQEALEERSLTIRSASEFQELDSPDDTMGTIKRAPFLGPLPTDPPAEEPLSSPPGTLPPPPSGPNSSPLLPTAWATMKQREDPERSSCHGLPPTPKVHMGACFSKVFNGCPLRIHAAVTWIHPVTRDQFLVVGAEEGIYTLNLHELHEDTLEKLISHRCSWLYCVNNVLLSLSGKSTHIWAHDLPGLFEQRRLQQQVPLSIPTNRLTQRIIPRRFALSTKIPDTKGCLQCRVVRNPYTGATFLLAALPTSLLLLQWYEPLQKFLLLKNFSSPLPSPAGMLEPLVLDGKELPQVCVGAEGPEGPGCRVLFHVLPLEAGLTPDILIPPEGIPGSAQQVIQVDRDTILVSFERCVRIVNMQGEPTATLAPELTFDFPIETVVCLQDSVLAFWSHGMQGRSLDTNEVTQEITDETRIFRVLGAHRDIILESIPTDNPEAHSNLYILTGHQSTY
In outline: as §1

The next test deals with STK39 (UniProt Q9UEW8). A digest of the protocol:
as §1

Sequence of ACVR2A (P27037 whole entry): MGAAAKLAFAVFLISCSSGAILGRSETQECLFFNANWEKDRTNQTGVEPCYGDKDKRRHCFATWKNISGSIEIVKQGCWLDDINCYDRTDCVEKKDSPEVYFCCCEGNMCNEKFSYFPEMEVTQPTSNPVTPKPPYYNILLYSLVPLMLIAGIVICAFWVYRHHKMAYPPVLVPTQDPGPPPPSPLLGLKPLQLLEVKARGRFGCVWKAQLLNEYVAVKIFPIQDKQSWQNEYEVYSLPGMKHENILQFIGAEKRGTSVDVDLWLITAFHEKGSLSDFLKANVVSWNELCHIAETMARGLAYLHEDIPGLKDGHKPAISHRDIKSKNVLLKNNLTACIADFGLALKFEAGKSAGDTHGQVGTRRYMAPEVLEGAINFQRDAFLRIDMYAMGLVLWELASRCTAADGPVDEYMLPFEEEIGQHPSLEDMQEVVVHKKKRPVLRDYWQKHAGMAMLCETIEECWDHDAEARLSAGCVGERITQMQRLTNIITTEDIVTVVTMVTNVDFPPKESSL
Sequence of UniProt Q8NI60 (Q8NI60 whole entry, looked up): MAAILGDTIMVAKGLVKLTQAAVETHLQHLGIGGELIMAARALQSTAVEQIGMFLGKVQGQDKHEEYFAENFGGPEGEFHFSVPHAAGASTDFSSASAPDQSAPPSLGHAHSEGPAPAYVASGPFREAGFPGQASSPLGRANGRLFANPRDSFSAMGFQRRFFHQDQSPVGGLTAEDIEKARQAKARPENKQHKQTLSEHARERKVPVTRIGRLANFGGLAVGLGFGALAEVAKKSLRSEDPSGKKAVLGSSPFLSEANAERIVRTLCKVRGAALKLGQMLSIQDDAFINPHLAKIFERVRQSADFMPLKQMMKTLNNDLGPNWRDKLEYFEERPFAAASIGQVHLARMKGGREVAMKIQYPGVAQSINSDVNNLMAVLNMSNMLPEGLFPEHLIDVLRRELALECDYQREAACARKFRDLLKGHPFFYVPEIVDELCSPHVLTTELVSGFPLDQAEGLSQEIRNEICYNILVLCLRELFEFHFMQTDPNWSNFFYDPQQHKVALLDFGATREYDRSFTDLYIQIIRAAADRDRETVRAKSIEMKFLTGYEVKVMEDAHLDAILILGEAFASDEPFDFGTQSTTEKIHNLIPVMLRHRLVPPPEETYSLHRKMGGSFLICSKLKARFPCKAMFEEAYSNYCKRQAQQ

A word on the pIC50: it is the negative decadic logarithm of the IC50, by convention in mol/L. A low value points to a high IC50. With `O=C(NCCNC(=O)c1cc(Nc2cc(C3CC3)[nH]n2)nc(N2CCN(Cc3ccc(S(=O)(=O)F)cc3)CC2)n1)OC1CC/C=C/CCC1` (configuration not stated), the pIC50 at UniProt Q8NI60 (cell material: Jurkat cells), at UniProt Q8NI60 (cell material: Jurkat lysate), at UniProt Q8NI60 (cell material: Lysate mix), on ACVR2A, on ULK1 (cell material: Jurkat lysate) and at ULK1 (cell material: Lysate mix) was below 4.52 throughout. Besides, the pIC50 was below 4.52 on NLK (cell material: Jurkat cells); below 4.52 on NLK (cell material: Jurkat lysate); below 4.52 on NLK (cell material: Lysate mix); 5.33 at MAP4K2 (cell material: Jurkat cells); below 4.52 at MAP4K2 (cell material: Jurkat lysate); below 4.52 at MAP4K2 (cell material: Lysate mix). The pIC50 on STK39 (cell material: Jurkat cells) was 5.62; at STK39 (cell material: Jurkat lysate), below 4.52.
On to `Cc1cc(Nc2cc(C(=O)NCCNC(=O)OC3CC/C=C/CCC3)nc(N3CCN(Cc4ccc(S(=O)(=O)F)cc4)CC3)n2)n[nH]1` (configuration not stated), for which the pIC50 on UniProt Q8NI60 (cell material: Lysate mix), at ACVR2A, at ULK1 (cell material: Lysate mix), on NLK (cell material: Lysate mix), at MAP4K2 (cell material: Lysate mix) and at STK39 (cell material: Lysate mix) was below 4.52 throughout.
Take `CCNC(=O)c1cc(Nc2cc(C)[nH]n2)nc(N2CCN(Cc3ccc(S(=O)(=O)F)cc3)CC2)n1`: the pIC50 was below 4.52 at UniProt Q8NI60 (cell material: Lysate mix); below 4.52 on ACVR2A; below 4.52 on ULK1 (cell material: Lysate mix); below 4.52 at NLK (cell material: Lysate mix); 4.7 on MAP4K2 (cell material: Lysate mix); 4.66 on STK39 (cell material: Lysate mix).
`C#CCNC(=O)c1cc(Nc2cc(C3CC3)[nH]n2)nc(N2CCN(Cc3ccc(S(=O)(=O)F)cc3)CC2)n1`: the pIC50 was below 4.52 on UniProt Q8NI60 (cell material: Jurkat cells); below 4.52 at UniProt Q8NI60 (cell material: Jurkat lysate); below 4.52 at UniProt Q8NI60 (cell material: Lysate mix); below 4.52 at ACVR2A; below 4.52 on ULK1 (cell material: Jurkat lysate); 4.85 at ULK1 (cell material: Lysate mix). For the same molecule, the pIC50 on NLK (cell material: Jurkat lysate) was below 4.52; at NLK (cell material: Lysate mix) it was below 4.52; on MAP4K2 (cell material: Jurkat cells) it was 5.92; at MAP4K2 (cell material: Jurkat lysate), 4.56; at MAP4K2 (cell material: Lysate mix), 5.36; on STK39 (cell material: Jurkat cells) it was 6.04. The pIC50 at STK39 (cell material: Jurkat lysate) is 5.28; on STK39 (cell material: Lysate mix) it was 5.92.
As for `C#CCNC(=O)c1cc(Nc2cc(C)[nH]n2)nc(N2CCN(Cc3ccc(S(=O)(=O)F)cc3)CC2)n1`, the pIC50 on UniProt Q8NI60 (cell material: Lysate mix) is below 4.52; at ACVR2A, below 4.52; on ULK1 (cell material: Lysate mix), below 4.52; at NLK (cell material: Lysate mix), below 4.52; at MAP4K2 (cell material: Lysate mix) it was 4.81; at STK39 (cell material: Lysate mix), 5.73.
Regarding `CCNC(=O)c1cc(Nc2cc(C3CC3)[nH]n2)nc(N2CCN(Cc3ccc(S(=O)(=O)F)cc3)CC2)n1`, the pIC50 at UniProt Q8NI60 (cell material: Lysate mix) is below 4.52; on ACVR2A, below 4.52; on ULK1 (cell material: Lysate mix) it was 4.9; on NLK (cell material: Lysate mix), below 4.52; on MAP4K2 (cell material: Lysate mix), 4.88; at STK39 (cell material: Lysate mix), 5.65.
